The numbers were not newly measured in patent US6486152B1, “Topical carbamazepine formulations and methods of use” (Taro Pharmaceutical Industries Ltd., priority 1997, dated 2002), which cites them from elsewhere.

The subject of one series is psoriatic erythroderma. Particulars: HIV positive patient.

In the case of `NC(=O)N1c2ccccc2C=Cc2ccccc21` [Carbamazepine, 5-carbamoyl-5H-dibenz[b,f]azepine], under “acetone”, the solubility in acetone entry is “soluble”. Besides, the solubility in alcohols result (alcohols) is listed as “soluble”. Also, where the note is “propylene glycol”, the “solubility in propylene glycol” value is “soluble”. Moreover, the solubility in water entry (water) is given as “practically insoluble”. For the same molecule, in the series with psoriatic erythroderma (accidentally ingested 200-400 mg/day for two weeks), the “psoriatic erythroderma condition during first intake” value is “exhibited improvement”. The “psoriatic erythroderma condition after stopping the medication” value in the series with psoriatic erythroderma (after they stopped taking the medication) was “flared up again”. Moreover, in the series on psoriatic erythroderma (intentionally took the medication a second time), the “psoriatic erythroderma condition on second intake” value is on record as “improved once again”. The mood entry in the series with psoriatic erythroderma (systemic (ingested) carbamazepine) is given as “affected”.
